Data taken from US9102674B2, “Substituted naphthyridine and quinoline compounds as MAO inhibitors” (DART NEUROSCIENCE (CAYMAN) LTD., priority 2013, dated 2015).

Molecular target: T1, Human recombinant MAO-B (Homo sapiens, UniProt P27338)
T1 construct: host or cells: insect cells
T1 sequence (P27338 1-520): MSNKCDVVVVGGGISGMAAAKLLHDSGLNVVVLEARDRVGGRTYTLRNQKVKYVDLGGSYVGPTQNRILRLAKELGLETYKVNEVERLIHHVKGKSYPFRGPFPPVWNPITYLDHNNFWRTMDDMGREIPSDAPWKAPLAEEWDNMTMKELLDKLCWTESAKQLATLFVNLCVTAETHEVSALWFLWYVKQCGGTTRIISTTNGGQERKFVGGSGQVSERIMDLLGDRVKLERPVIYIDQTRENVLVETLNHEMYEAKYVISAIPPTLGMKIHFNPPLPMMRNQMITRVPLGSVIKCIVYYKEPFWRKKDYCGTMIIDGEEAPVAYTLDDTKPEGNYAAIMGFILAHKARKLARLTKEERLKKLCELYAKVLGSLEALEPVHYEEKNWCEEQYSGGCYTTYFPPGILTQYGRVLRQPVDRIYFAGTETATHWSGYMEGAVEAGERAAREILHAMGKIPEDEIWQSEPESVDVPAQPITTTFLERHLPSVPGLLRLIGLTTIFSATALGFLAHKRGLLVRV
Experiment: MAO-B enzymatic assay (fluorometric, kynuramine)
Type: biochemical
Conditions: human recombinant MAO-B expressed in insect cells; kynuramine substrate; values given as bins; read-out: MAO-B (pEC50) (converted)
Procedure: The MAO enzymatic assay was performed according to the fluorometric method described by Matsumoto and colleagues (Matsumoto et al., Clin. Biochem. 1985, 18, 126-129) with the following modifications. Human recombinant MAO-A and MAO-B expressed in insect cells were used. For both assays, test compound and/or vehicle were preincubated with purified enzyme in phosphate buffer pH 7.4 for 15 minutes at 37° C. The reaction was initiated by addition of […] kynuramine. Following a 60 minute incubation period, the reaction was terminated by the addition of 6 N NaOH. The amount of 4-hydroxyquinoline that formed was determined by spectrofluorimetrically at 325 nm/465 nm.
Results were converted to percent inhibition, and the EC50 (M) for each reaction was determined using the XLfit program from IDBS (ID Business Solutions Ltd., 2 Occam Court, Surrey Research Park, Guildford, Surrey, GU2 7QB UK). The EC50 represents the concentration of a compound where 50% of its maximal effect is observed. The pEC50 is defined as the negative logarithm of the EC50; a higher pEC50 value therefore corresponds to higher potency in the assay.
Representative compounds of the invention were evaluated in the MAO-B enzymatic assay. Typically, the compounds of the invention show MAO-B inhibitory properties at a concentration of 0.1 to 10 μM, typically at 5-100%.
As depicted in the following Table, these inhibitory properties were mirrored by pEC50 values ranging from 5 (meaning 10^−5 M or 10 μM) to greater than 7 (meaning less than 10^−7 M or 0.1 μM).

| EC50 | SMILES |
| --- | --- |
| 0.1 to 1 µM | CC(C)(O)c1cnc2cc(OCCc3cccc(Cl)c3)ccc2c1 [Example 39, 2-(7-(3-Chlorophenethoxy)quinolin-3-yl)propan-2-ol] |
| < 0.1 µM | COCc1cnc2cc(OCc3cccc(Cl)c3)ccc2c1 [Example 40, 7-((3-Chlorobenzyl)oxy)-3-(methoxymethyl)quinoline] |
| < 0.1 µM | CC(C)(F)c1cnc2cc(OCc3ccc(F)cc3)ccc2c1 [Example 41, 7-((4-Fluorobenzyl)oxy)-3-(2-fluoropropan-2-yl)quinoline] |
| < 0.1 µM | CC(=O)c1cnc2cc(OCc3ccc(F)cc3)ccc2c1 [Example 42, 1-(7-((4-Fluorobenzyl)oxy)quinolin-3-yl)ethanone] |
| < 0.1 µM | CC(O)c1cnc2cc(OCc3ccc(F)cc3)ccc2c1 (stereo not shown) [Example 43, 1-(7-((4-Fluorobenzyl)oxy)quinolin-3-yl)ethanol] |
| < 0.1 µM | C[C@@H](O)c1cnc2cc(OCc3ccc(F)cc3)ccc2c1 [Example 44, (R)-1-(7-((4-Fluorobenzyl)oxy)quinolin-3-yl)ethanol] |
| < 0.1 µM | C[C@H](O)c1cnc2cc(OCc3ccc(F)cc3)ccc2c1 [Example 45, (S)-1-(7-((4-Fluorobenzyl)oxy)quinolin-3-yl)ethanol] |
| < 0.1 µM | CNC(=O)c1cnc2cc(OCc3cccc(Cl)c3)ccc2c1 [Example 46, 7-((3-Chlorobenzyl)oxy)-N-methylquinoline-3-carboxamide] |
| < 0.1 µM | NCCNC(=O)c1cnc2cc(OCc3cccc(Cl)c3)ccc2c1 [Example 47, N-(2-Aminoethyl)-7-((3-chlorobenzyl)oxy)quinoline-3-carboxamide] |
| 0.1 to 1 µM | CNCCNC(=O)c1cnc2cc(OCc3cccc(Cl)c3)ccc2c1 [Example 48, 7-((3-Chlorobenzyl)oxy)-N-(2-(methylamino)ethyl)quinoline-3-carboxamide] |
| 1 to 10 µM | CN(C)CCNC(=O)c1cnc2cc(OCc3cccc(Cl)c3)ccc2c1 [Example 49, 7-((3-Chlorobenzyl)oxy)-N-(2-(dimethylamino)ethyl)quinoline-3-carboxamide] |
| < 0.1 µM | NCc1cnc2cc(OCc3cccc(Cl)c3)ccc2c1 [Example 50, (7-((3-Chlorobenzyl)oxy)quinolin-3-yl)methanamine] |
| 1 to 10 µM | CCOC(=O)Cc1cnc2cc(OCc3cccc(F)c3)ccc2c1 [Example 52, Ethyl 2-(7-((3-fluorobenzyl)oxy)quinolin-3-yl)acetate] |
| 0.1 to 1 µM | CCOC(=O)Cc1cnc2cc(OCc3ccc(F)cc3)ccc2c1 [Example 53, Ethyl 2-(7-((4-fluorobenzyl)oxy)quinolin-3-yl)acetate] |
| < 0.1 µM | COC(=O)Cc1cnc2cc(OCc3cccc(Cl)c3)ccc2c1 [Example 54, Methyl 2-(7-((3-chlorobenzyl)oxy)quinolin-3-yl)acetate] |
| < 0.1 µM | NC(=O)Cc1cnc2cc(OCc3cccc(Cl)c3)ccc2c1 [Example 55, 2-(7-((3-Chlorobenzyl)oxy)quinolin-3-yl)acetamide] |
| < 0.1 µM | OCCc1cnc2cc(OCc3cccc(Cl)c3)ccc2c1 [Example 56, 2-(7-((3-Chlorobenzyl)oxy)quinolin-3-yl)ethanol] |
| < 0.1 µM | NC(=O)Cc1cnc2cc(OCc3cccc(F)c3)ccc2c1 [Example 57, 2-(7-((3-Fluorobenzyl)oxy)quinolin-3-yl)acetamide] |
| < 0.1 µM | NC(=O)Cc1cnc2cc(OCc3ccc(F)cc3)ccc2c1 [Example 58, 2-(7-((4-fluorobenzyl)oxy)quinolin-3-yl)acetamide] |
| 0.1 to 1 µM | CCOC(=O)C(C)(C)c1cnc2cc(OCc3cccc(Cl)c3)ccc2c1 [Example 59, Ethyl 2-(7-((3-chlorobenzyl)oxy)quinolin-3-yl)-2-methylpropanoate] |
| < 0.1 µM | CC(C)(CO)c1cnc2cc(OCc3cccc(Cl)c3)ccc2c1 [Example 60, 2-(7-((3-Chlorobenzyl)oxy)quinolin-3-yl)-2-methylpropan-1-ol] |
| < 0.1 µM | CC(C)(C(N)=O)c1cnc2cc(OCc3cccc(Cl)c3)ccc2c1 [Example 61, 2-(7-((3-Chlorobenzyl)oxy)quinolin-3-yl)-2-methylpropanamide] |

| EC50 | SMILES |
| --- | --- |
| < 0.1 µM | NC(=O)Cc1cnc2cc(OCc3ccnc(C(F)(F)F)c3)ccc2c1 [Example 62, 2-(7-((2-(Trifluoromethyl)pyridin-4-yl)methoxy)quinolin-3-yl)acetamide] |
| 1 to 10 µM | CC(C)(O)Cc1cnc2cc(OCc3cccc(Cl)c3)ccc2c1 [Example 63, 1-(7-((3-Chlorobenzyl)oxy)quinolin-3-yl)-2-methylpropan-2-ol] |
| < 0.1 µM | NC(=O)c1cnc2cc(OCc3cccc(Cl)c3)ccc2c1 [Example 64, 7-((3-Chlorobenzyl)oxy)quinoline-3-carboxamide] |
| < 0.1 µM | CC(C)(O)c1cnc2cc(OCc3ccc(F)cc3)cnc2c1 [Example 65, 2-{7-[(4-Fluorophenyl)methoxy]-1,5-naphthyridin-3-yl}propan-2-ol] |
| 0.1 to 1 µM | CC(C)(O)c1cc2ccc(OCc3ccc(F)cc3)cc2[n+]([O-])c1 [Example 66, 7-[(4-Fluorophenyl)methoxy]-3-(2-hydroxypropan-2-yl)quinolin-1-ium-1-olate] |
| < 0.1 µM | NC(=O)c1cnc2cc(OCc3cccc(F)c3)cnc2c1 [Example 67, 7-[(3-Fluorophenyl)methoxy]-1,5-naphthyridine-3-carboxamide] |
| < 0.1 µM | NC(=O)c1cnc2cc(OCc3ccc(F)cc3)cnc2c1 [Example 68, 7-((4-Fluorobenzyl)oxy)-1,5-naphthyridine-3-carboxamide] |
| < 0.1 µM | NC(=O)c1cnc2cc(OCc3cccc(Cl)c3)cnc2c1 [Example 69, 7-((3-Chlorobenzyl)oxy)-1,5-naphthyridine-3-carboxamide] |
| < 0.1 µM | NC(=O)c1cnc2cc(OCc3ccc(F)c(F)c3)cnc2c1 [Example 70, 7-((3,4-Difluorobenzyl)oxy)-1,5-naphthyridine-3-carboxamide] |
| < 0.1 µM | NC(=O)c1cnc2cc(OCc3ccc(F)c(Cl)c3)cnc2c1 [Example 71, 7-[(3-Chloro-4-fluorophenyl)methoxy]-1,5-naphthyridine-3-carboxamide] |
| < 0.1 µM | CNC(=O)c1cnc2cc(OCc3cccc(Cl)c3)cnc2c1 [Example 72, 7-[(3-Chlorophenyl)methoxy]-N-methyl-1,5-naphthyridine-3-carboxamide] |
| < 0.1 µM | OCc1cnc2cc(OCc3ccc(F)c(F)c3)cnc2c1 [Example 73, (7-((3,4-Difluorobenzyl)oxy)-1,5-naphthyridin-3-yl)methanol] |
| < 0.1 µM | N#CCc1cnc2cc(OCc3ccc(F)c(F)c3)cnc2c1 [Example 74, 2-{7-[(3,4-Difluorophenyl)methoxy]-1,5-naphthyridin-3-yl}acetonitrile] |
| < 0.1 µM | CC(C)(F)c1cnc2cc(OCc3ccc(F)cc3)cnc2c1 [Example 75, 3-[(4-Fluorophenyl)methoxy]-7-(2-fluoropropan-2-yl)-1,5-naphthyridine] |
| < 0.1 µM | CC(C)(O)c1cnc2cc(OCc3cccc(F)c3)cnc2c1 [Example 76, 2-{7-[(3-Fluorophenyl)methoxy]-1,5-naphthyridin-3-yl}propan-2-ol] |
| < 0.1 µM | CC(C)(O)c1cnc2cc(OCc3ccc(F)c(F)c3)cnc2c1 [Example 77, 2-{7-[(3,4-Difluorophenyl)methoxy]-1,5-naphthyridin-3-yl}propan-2-ol] |
| < 0.1 µM | CC(C)(O)c1cnc2cc(OCc3ccc(F)c(Cl)c3)cnc2c1 [Example 78, 2-{7-[(3-Chloro-4-fluorophenyl)methoxy]-1,5-naphthyridin-3-yl}propan-2-ol] |
| < 0.1 µM | CC(C)(O)c1cnc2cc(OCc3cccc(Cl)c3)cnc2c1 [Example 79, 2-{7-[(3-Chlorophenyl)methoxy]-1,5-naphthyridin-3-yl}propan-2-ol] |
| < 0.1 µM | NC(=O)Cc1cnc2cc(OCc3ccc(F)c(F)c3)cnc2c1 [Example 80, 2-(7-((3,4-Difluorobenzyl)oxy)-1,5-naphthyridin-3-yl)acetamide] |
| 0.1 to 1 µM | NC(=O)Cc1cnc2cc(OCc3cccc(C(F)(F)F)n3)cnc2c1 [Example 81, 2-(7-((6-(Trifluoromethyl)pyridin-2-yl)methoxy)-1,5-naphthyridin-3-yl)acetamide] |
| < 0.1 µM | NC(=O)CC1Cc2ccc(OCc3cccc(Cl)c3)cc2NC1=O (stereo not shown) [Example 82, 2-(7-((3-Chlorobenzyl)oxy)-2-oxo-1,2,3,4-tetrahydroquinolin-3-yl)acetamide] |
